These results are taken from US8329646B2, “Methods for the treatment of muscle loss” (Nestec S.A., priority 2006, dated 2012).

In one assay the test system is eIF2-α. Nature of the assay: Densitometric analysis of Western blots of phosphorylated eIF2-α in C2C12 myotubes. It is filed as cell-based, murine. The note with it: FIG. 2, FIG. 3, agent in combination with PIF, compared to PIF alone or to the control. An excerpt:
(§1) In order to determine the efficacy of branched chain amino acids (BCAAs) and other agents in reducing muscle catabolism, murine C2C12 myotubes were exposed to PIF or Angiotensin II in combination with amino acids (including BCAAs), insulin, insulin-like growth factor-1 (IGF-1), and a PKR inhibitor. PIF was extracted and purified from MAC16 tumors as described by Smith et al., Effect of a Cancer Cachectic Factor on Protein Synthesis/Degradation in Murine C2C12 Myoblasts: Modulation by Eicosapentaenoic Acid, Cancer Research, 59:5507-13 (1999), which is hereby incorporated by reference. Protein degradation was determined using the method described by Whitehouse et al., Increased Expression of the Ubiquitin-Proteasome Pathway in Murine Myotubes by Proteolysis-Inducing Factor (PIF) is Associated with Activation of the Transcription Factor NF-κB, British Journal of Cancer, 89:1116-22 (2003), which is also hereby incorporated by reference.
The control sample was incubated only in phosphate buffered saline (PBS).
A general note: A western blot detects proteins with antibodies after separation by electrophoresis.

The subject of assay [1] is murine C2C12 myotubes. Put plainly: Protein synthesis in C2C12 myotubes exposed to PIF or Angiotensin II. The note with it: for suppression of the inhibition of protein synthesis by PIF and Ang II: in the presence of PIF or Ang II; for reduction of protein synthesis when incubated alone: FIG. 6, FIG. 8, b61, compared to the control. It is filed as cell-based.
Text: as §1
The measured proteolytic activity of PIF can be more specifically described as ubiquitin-like degradation activity.

Assay [2] has as its system murine C2C12 myotubes. Put plainly: Protein degradation in C2C12 myotubes exposed to PIF or Angiotensin II. It is filed as cell-based. The method, then: as §1, with “PIF” for “In order to determine the efficacy of branched chain amino acids (BCAAs) and other agents in reducing muscle catabolism, murine C2C12 myotubes were exposed to PIF or Angiotensin II in combination with amino acids (including BCAAs), insulin, insulin-like growth factor-1 (IGF-1), and a PKR inhibitor. PIF”

Entries after “also recorded” stand apart in the source; their conditions may differ.

As for `CC(C)[C@H](N)C(=O)O` [valine], in the assay with eIF2-α, the “eIF2-α phosphorylation in the presence of PIF” value (“eIF2-α phosphorylation” below) is given as “reduced such phosphorylation to about the level of the control or below”.

Regarding `CC[C@H](C)[C@H](N)C(=O)O` [isoleucine], the “eIF2-α phosphorylation” value in the assay with eIF2-α is on record as “reduced such phosphorylation to about the level of the control or below”.

In the case of `N=C(N)NCCC[C@H](N)C(=O)O` [arginine], in the assay with eIF2-α, the “eIF2-α phosphorylation” value is listed as “greater than that of the control”.

With `CC(C)C[C@H](N)C(=O)O` [leucine], in the assay on eIF2-α, the “eIF2-α phosphorylation” value is “reduced such phosphorylation to about the level of the control or below”.

With IGF-1: insulin-like growth factor-1, the “eIF2-α phosphorylation” value was “significantly reduced” in the assay with eIF2-α and “completely attenuated” in the assay on eIF2-α (listed as IGF1). In addition, the “suppression of the inhibition of protein synthesis by PIF and Ang II” value in the assay on murine C2C12 myotubes [1] is “effective in suppressing the inhibition of protein synthesis”. As to “Angiotensin II (DRVYIHPF; Angiotensin-2; UniProt P01019 25-32, looked up)”, the “increase of protein degradation when incubated alone” value in the assay with murine C2C12 myotubes [2] (FIG. 5, FIG. 7, compared to the control) is “about 51%”. The “reduction of protein synthesis when incubated alone” value is on record as “about 40%” in the assay on murine C2C12 myotubes [1] and 40% in the assay on murine C2C12 myotubes [1] (listed as Ang II). As to insulin: an anabolic hormone, the “eIF2-α phosphorylation” value with eIF2-α is given as “significantly reduced; also recorded: completely attenuated”. The “suppression of the inhibition of protein synthesis by PIF and Ang II” value with murine C2C12 myotubes [1] is reported as “effective in suppressing the inhibition of protein synthesis”. In the case of `CSCC[C@H](N)C(=O)O` [methionine], in the assay with eIF2-α, the “eIF2-α phosphorylation” value is “greater than that of the control”. For `O=C1Nc2ccc3ncsc3c2/C1=C/c1cnc[nH]1` [PKR inhibitor], the “protein degradation levels, PKR inhibitor added to PIF” value in the assay with murine C2C12 myotubes [2] (FIG. 5, in combination with PIF) was “reversed protein degradation levels back to about those of the control”. In the assay with murine C2C12 myotubes [2] (FIG. 7, in combination with Angiotensin II), the “protein degradation levels, PKR inhibitor added to Angiotensin II” value was “maintaining protein degradation levels at about that of the control”. In the assay on murine C2C12 myotubes [1] (FIG. 6, in combination with PIF), the “protein synthesis levels, PKR inhibitor added to PIF” value is reported as “reversed protein synthesis levels back to about those of the control”. Further, the “protein synthesis levels, PKR inhibitor added to Angiotensin II” value in the assay on murine C2C12 myotubes [1] (FIG. 8, in combination with Angiotensin II) is recorded as “maintained protein synthesis levels at about that of the control”.
